Test results from ChEMBL document CHEMBL1201862, “PubChem BioAssay data set” (2004).
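Cells were grown in 96-well plates and exposed to each compound for 48 hours at five concentrations; endpoints were interpolated linearly between bracketing concentrations, or set to the highest concentration if not reached. Abbreviation: GI50, concentration required for 50% inhibition of growth.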 Activity calls are given as the source filed them. Cut-off read from the data, not from the text of the source: active = GI50 up to about 1.1 µM and inactive = higher.

Columns and labels:
Experiment in all cases: NCI anticancer screen, dose series, 48 h
[1] = test system: U-251
[2] = test system: LOX IMVI
[3] = test system: SN12C
[4] = test system: NCI/ADR-RES
[5] = test system: NCI-H460
[6] = test system: KM12
[7] = test system: IGROV-1
[8] = test system: TK-10
[9] = test system: SNB-19
[10] = test system: MCF7
[11] = test system: UACC-257
[12] = test system: CCRF-CEM
[13] = test system: UO-31
[14] = test system: HL-60
[15] = test system: SNB-75
[16] = test system: BT-549
[17] = test system: HCC 2998
[18] = test system: ACHN
[19] = test system: NCI-H23
[20] = test system: T47D

SMILES	GI50 [1]	GI50 [2]	GI50 [3]	GI50 [4]	GI50 [5]	GI50 [6]	GI50 [7]	GI50 [8]	GI50 [9]	GI50 [10]	GI50 [11]	GI50 [12]	GI50 [13]	GI50 [14]	GI50 [15]	GI50 [16]	GI50 [17]	GI50 [18]	GI50 [19]	GI50 [20]
Cc1c(C#N)c2ccccc2c2nc3ccccc3n12	> 100 µM (inactive)	34.4 µM (inactive)	63.2 µM (inactive)	> 100 µM (inactive)	27.7 µM (inactive)	> 100 µM (inactive)	31.9 µM (inactive)	> 100 µM (inactive)	> 100 µM (inactive)	50.9 µM (inactive)	> 100 µM (inactive)	> 100 µM (inactive)	11.7 µM (inactive)	> 100 µM (inactive)	73.3 µM (inactive)	> 100 µM (inactive)	64.3 µM (inactive)	64.1 µM (inactive)		
O=c1[nH]c2ccc(CC(=S)N3CCOCC3)cc2o1	> 100 µM (inactive)	> 100 µM (inactive)		> 100 µM (inactive)	> 100 µM (inactive)	> 100 µM (inactive)	> 100 µM (inactive)	> 100 µM (inactive)		> 100 µM (inactive)	> 100 µM (inactive)	89.9 µM (inactive)		89.9 µM (inactive)	> 100 µM (inactive)	> 100 µM (inactive)		> 100 µM (inactive)	> 100 µM (inactive)	
O=S(=O)(c1ccc(/N=C2\NC(c3ccc(O)cc3)(c3ccccc3O)c3ccccc32)cc1)c1ccc(/N=C2/NC(c3ccc(O)cc3)(c3ccccc3O)c3ccccc32)cc1 (stereo not given)		2.96 µM (inactive)	3.78 µM (inactive)	24.7 µM (inactive)	3.7 µM (inactive)	2.48 µM (inactive)	2.68 µM (inactive)	13.8 µM (inactive)	5.08 µM (inactive)	3.95 µM (inactive)	5.02 µM (inactive)	3.37 µM (inactive)	21.5 µM (inactive)	1.02 µM (active)	3.32 µM (inactive)		4.63 µM (inactive)	20.2 µM (inactive)	2.62 µM (inactive)	2.25 µM (inactive)
CC(=O)N1CC(C)(C)c2c1cc(C)c(O)c2C	> 100 µM (inactive)	> 100 µM (inactive)	> 100 µM (inactive)	> 100 µM (inactive)	> 100 µM (inactive)	> 100 µM (inactive)	> 100 µM (inactive)	> 100 µM (inactive)	> 100 µM (inactive)	> 100 µM (inactive)	> 100 µM (inactive)	> 100 µM (inactive)	> 100 µM (inactive)	86.9 µM (inactive)			> 100 µM (inactive)	> 100 µM (inactive)	> 100 µM (inactive)	> 100 µM (inactive)
CCOC(=O)c1c(C)nc2c3ccccc3c(C#N)c(C)n12	70.8 µM (inactive)	> 100 µM (inactive)	> 100 µM (inactive)	80.4 µM (inactive)	49.4 µM (inactive)	> 100 µM (inactive)	23 µM (inactive)	> 100 µM (inactive)	> 100 µM (inactive)	> 100 µM (inactive)	> 100 µM (inactive)	> 100 µM (inactive)	15.6 µM (inactive)	> 100 µM (inactive)	20.6 µM (inactive)	> 100 µM (inactive)	> 100 µM (inactive)	57.5 µM (inactive)		
CCOC(=O)c1cc2c(C(=O)c3ccc([N+](=O)[O-])cc3)c(C(C)=O)ccc2[nH]1	9.51 µM (inactive)	99.8 µM (inactive)	72.8 µM (inactive)		82.6 µM (inactive)	> 100 µM (inactive)	26.9 µM (inactive)	22.2 µM (inactive)	22.1 µM (inactive)	> 100 µM (inactive)	> 100 µM (inactive)	> 100 µM (inactive)	> 100 µM (inactive)	> 100 µM (inactive)	11.6 µM (inactive)	38.5 µM (inactive)	> 100 µM (inactive)	28.7 µM (inactive)	50.2 µM (inactive)	29.9 µM (inactive)
C=C(c1ccccc1)[C@@]1(O)CC[C@@H]1N(CC#N)Cc1ccccc1	53.3 µM (inactive)	19.1 µM (inactive)	20.1 µM (inactive)	19.7 µM (inactive)	44.3 µM (inactive)	28.6 µM (inactive)	36.1 µM (inactive)	20.8 µM (inactive)	36.6 µM (inactive)		17.8 µM (inactive)	32 µM (inactive)	26.7 µM (inactive)	32 µM (inactive)	33.9 µM (inactive)	19.9 µM (inactive)	21.2 µM (inactive)	20.8 µM (inactive)	23.1 µM (inactive)	16.3 µM (inactive)
Oc1nc(S)nc2c1C(c1ccc(Cl)cc1)c1c(O)nc(S)nc1O2	> 100 µM (inactive)	> 100 µM (inactive)	> 100 µM (inactive)	> 100 µM (inactive)	> 100 µM (inactive)	> 100 µM (inactive)	> 100 µM (inactive)	> 100 µM (inactive)	> 100 µM (inactive)	> 100 µM (inactive)	> 100 µM (inactive)	> 100 µM (inactive)	> 100 µM (inactive)	> 100 µM (inactive)		> 100 µM (inactive)		> 100 µM (inactive)	> 100 µM (inactive)	
CC(NNC(=O)c1ccncc1)c1cccc(C(F)(F)F)c1 (stereo not given)	> 100 µM (inactive)	> 100 µM (inactive)	> 100 µM (inactive)	> 100 µM (inactive)	> 100 µM (inactive)	> 100 µM (inactive)	> 100 µM (inactive)	> 100 µM (inactive)		> 100 µM (inactive)	> 100 µM (inactive)	> 100 µM (inactive)	> 100 µM (inactive)	> 100 µM (inactive)	> 100 µM (inactive)		> 100 µM (inactive)	> 100 µM (inactive)	> 100 µM (inactive)	> 100 µM (inactive)
CCOC(=O)CC(=O)C(=O)NN=C1NCCCN1	> 100 µM (inactive)	> 100 µM (inactive)	> 100 µM (inactive)		> 100 µM (inactive)	> 100 µM (inactive)	> 100 µM (inactive)	> 100 µM (inactive)	> 100 µM (inactive)	> 100 µM (inactive)		> 100 µM (inactive)	> 100 µM (inactive)	> 100 µM (inactive)	> 100 µM (inactive)	> 100 µM (inactive)	> 100 µM (inactive)	> 100 µM (inactive)	> 100 µM (inactive)	> 100 µM (inactive)
CC(=O)OC1CCC2(C)C(=CC(C3C=C4CC(OC(C)=O)CCC4(C)C4=C3C3CC5OC6(CCC(C)CO6)C(C)C5C3(C)CC4)C3=C2CCC2(C)C3CC3OC4(CCC(C)CO4)C(C)C32)C1 (stereo not given)	14.7 µM (inactive)	16.5 µM (inactive)	17.6 µM (inactive)	17.2 µM (inactive)		18.2 µM (inactive)	11.5 µM (inactive)	14.5 µM (inactive)	16.7 µM (inactive)	10.3 µM (inactive)	10.2 µM (inactive)		15.5 µM (inactive)		16.3 µM (inactive)	15.6 µM (inactive)		15.8 µM (inactive)	14.7 µM (inactive)	15.5 µM (inactive)
OC1c2ccccc2CCC1C(O)(C(F)(F)F)C(F)(F)F (stereo not given)	> 100 µM (inactive)	> 100 µM (inactive)	> 100 µM (inactive)	> 100 µM (inactive)	> 100 µM (inactive)	> 100 µM (inactive)	> 100 µM (inactive)	> 100 µM (inactive)	> 100 µM (inactive)	46.3 µM (inactive)		> 100 µM (inactive)	> 100 µM (inactive)	> 100 µM (inactive)	45.8 µM (inactive)		> 100 µM (inactive)	> 100 µM (inactive)	85.1 µM (inactive)	> 100 µM (inactive)
Cn1c(S)nnc1CNc1ccc(-c2nnc(S)n2C)cc1	> 100 µM (inactive)	> 100 µM (inactive)	> 100 µM (inactive)	> 100 µM (inactive)	> 100 µM (inactive)	> 100 µM (inactive)	> 100 µM (inactive)	> 100 µM (inactive)	> 100 µM (inactive)	> 100 µM (inactive)	> 100 µM (inactive)	> 100 µM (inactive)	> 100 µM (inactive)	> 100 µM (inactive)	> 100 µM (inactive)	> 100 µM (inactive)	> 100 µM (inactive)	> 100 µM (inactive)	> 100 µM (inactive)	
COC(=O)C1(NC(=O)C(CC(=O)OCc2ccccc2)NC(=O)OCc2ccccc2)CCCCCC1 (stereo not given)	44.9 µM (inactive)	24.8 µM (inactive)		21 µM (inactive)	34.8 µM (inactive)	50.1 µM (inactive)	37.6 µM (inactive)	67.8 µM (inactive)	51.8 µM (inactive)	33 µM (inactive)			35.1 µM (inactive)	17.7 µM (inactive)	35.1 µM (inactive)	17.4 µM (inactive)		34 µM (inactive)	41.8 µM (inactive)	30.8 µM (inactive)
CSc1nc(Nc2cccc(C(F)(F)F)c2)c2c(N)nn(C)c2n1	> 100 µM (inactive)	71.1 µM (inactive)	> 100 µM (inactive)	85.3 µM (inactive)	50.9 µM (inactive)	> 100 µM (inactive)	> 100 µM (inactive)	> 100 µM (inactive)	> 100 µM (inactive)		> 100 µM (inactive)	38.1 µM (inactive)	> 100 µM (inactive)		81.3 µM (inactive)	> 100 µM (inactive)	89.7 µM (inactive)	> 100 µM (inactive)	> 100 µM (inactive)	71.8 µM (inactive)
